In brackets after ≈: the same amount, converted by molar mass. Values belong to the compound of their own block, whether it stands above or below them.
Columns and labels:
Dipeptidyl peptidase 4 [1] = biological target: T1, Dipeptidyl peptidase 4 (Homo sapiens, UniProt P27487); experiment: Inhibition of DPP4 (unknown origin)
[2] = biological target: T2, Amine oxidase [flavin-containing] B (Homo sapiens, UniProt P27338); experiment: Inhibition of MAO-B (unknown origin)
T2 sequence (P27338 whole entry): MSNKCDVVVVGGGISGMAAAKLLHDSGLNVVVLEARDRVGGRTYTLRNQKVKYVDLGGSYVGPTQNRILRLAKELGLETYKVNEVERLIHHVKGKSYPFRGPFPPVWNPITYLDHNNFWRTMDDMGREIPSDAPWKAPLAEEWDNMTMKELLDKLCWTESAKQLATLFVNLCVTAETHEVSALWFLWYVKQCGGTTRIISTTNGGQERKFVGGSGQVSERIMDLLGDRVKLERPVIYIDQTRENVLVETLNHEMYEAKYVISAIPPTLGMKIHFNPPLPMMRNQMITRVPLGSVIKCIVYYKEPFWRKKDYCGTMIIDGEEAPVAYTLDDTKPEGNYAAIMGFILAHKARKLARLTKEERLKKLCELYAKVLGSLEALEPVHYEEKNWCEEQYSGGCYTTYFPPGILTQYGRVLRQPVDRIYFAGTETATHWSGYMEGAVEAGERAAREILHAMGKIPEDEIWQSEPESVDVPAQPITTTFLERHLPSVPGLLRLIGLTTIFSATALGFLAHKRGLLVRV

[3] = Plasma protein binding in rhesus monkey; format: ADME, cell-free; conditions: Macaca mulatta
[4] = Half life in Sprague-Dawley rat at 1 mg/kg; format: ADME, organism-based; conditions: in vivo
[5] = Half life in dog at 1 mg/kg; format: ADME, organism-based, Canis lupus familiaris; conditions: in vivo
[6] = Half life in rhesus monkey at 1 mg/kg, iv; format: ADME, organism-based, Macaca mulatta; conditions: in vivo
[7] = Half life in human; format: ADME
[8] = biological target: GABA-A receptor; anion channel; experiment: In vivo receptor occupancy at GABAA receptor in po dosed Sprague-Dawley rat assessed as plasma concentration causing 50% reduction at 0.39 mg/kg measured after 48 hrs by LC/MS method; format: functional, organism-based
[9] = Inhibition of urease (unknown origin) measured after 20 mins
Entamoeba histolytica = experiment: Antiparasitic activity against Entamoeba histolytica HM1:1MSS assessed as parasitic growth inhibition by microdilution method; format: functional, organism-based
[10] = biological target: T3, Purine nucleoside phosphorylase (Homo sapiens, UniProt P00491); experiment: Inhibition of PNP (unknown origin) expressed in Escherichia coli
T3 sequence (P00491 whole entry): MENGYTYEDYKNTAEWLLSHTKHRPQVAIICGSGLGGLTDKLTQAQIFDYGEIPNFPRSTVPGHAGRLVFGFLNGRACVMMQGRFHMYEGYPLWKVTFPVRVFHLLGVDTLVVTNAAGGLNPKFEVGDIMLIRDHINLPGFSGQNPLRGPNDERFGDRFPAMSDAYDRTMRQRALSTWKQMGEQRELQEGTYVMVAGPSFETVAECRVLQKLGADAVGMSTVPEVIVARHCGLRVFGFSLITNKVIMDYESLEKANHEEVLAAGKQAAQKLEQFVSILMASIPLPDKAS

[11] = biological target: T4, Cyclin-dependent kinase 2 (Homo sapiens, UniProt P24941); experiment: Inhibition of human CDK2 at 10 uM
[12] = biological target: T4, Cyclin-dependent kinase 2; experiment: Inhibition of CDK2 (unknown origin); conditions: concentration not given here
[13] = Antiproliferative activity against human NCI cells assessed as reduction in cell viability at 100 uM by MTT assay; format: functional; conditions: read-out: GI
[14] = biological target: T5, Calcitonin gene-related peptide 1 (Homo sapiens, UniProt P06881); experiment: Inhibition of CGRP (unknown origin)
T5 sequence (P06881 whole entry): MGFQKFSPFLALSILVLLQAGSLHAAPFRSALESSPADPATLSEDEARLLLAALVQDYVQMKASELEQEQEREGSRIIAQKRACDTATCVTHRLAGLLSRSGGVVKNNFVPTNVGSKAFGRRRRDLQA

[15] = biological target: T6, Tyrosinase (Homo sapiens) (UniProt P14679); experiment: Inhibition of tyrosinase (unknown origin) assessed as enzyme residual activity at 0.07 mg/ml relative to control; values are per cent of control
T6 sequence (whole entry): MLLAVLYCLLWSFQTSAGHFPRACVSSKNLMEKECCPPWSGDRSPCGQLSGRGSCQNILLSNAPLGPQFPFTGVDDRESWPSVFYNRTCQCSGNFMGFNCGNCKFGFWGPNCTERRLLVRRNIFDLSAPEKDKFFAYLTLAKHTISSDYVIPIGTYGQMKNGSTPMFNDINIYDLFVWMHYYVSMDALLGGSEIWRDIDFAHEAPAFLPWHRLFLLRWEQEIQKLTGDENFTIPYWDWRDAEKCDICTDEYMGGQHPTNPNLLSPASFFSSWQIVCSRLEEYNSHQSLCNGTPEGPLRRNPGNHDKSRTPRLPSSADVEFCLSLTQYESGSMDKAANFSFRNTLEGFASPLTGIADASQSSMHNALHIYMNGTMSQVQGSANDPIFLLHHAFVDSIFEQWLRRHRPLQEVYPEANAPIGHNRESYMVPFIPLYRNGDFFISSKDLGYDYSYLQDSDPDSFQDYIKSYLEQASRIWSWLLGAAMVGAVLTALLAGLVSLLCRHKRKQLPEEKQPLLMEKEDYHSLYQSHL

[16] = biological target: T6, Tyrosinase (Homo sapiens); experiment: Inhibition of tyrosinase (unknown origin) relative to control; conditions: concentration not given here
[17] = biological target: T7, Glucose-dependent insulinotropic receptor (Homo sapiens, UniProt Q8TDV5); experiment: Inhibition of GPR119 (unknown origin) at 10 uM
T7 sequence (Q8TDV5 whole entry): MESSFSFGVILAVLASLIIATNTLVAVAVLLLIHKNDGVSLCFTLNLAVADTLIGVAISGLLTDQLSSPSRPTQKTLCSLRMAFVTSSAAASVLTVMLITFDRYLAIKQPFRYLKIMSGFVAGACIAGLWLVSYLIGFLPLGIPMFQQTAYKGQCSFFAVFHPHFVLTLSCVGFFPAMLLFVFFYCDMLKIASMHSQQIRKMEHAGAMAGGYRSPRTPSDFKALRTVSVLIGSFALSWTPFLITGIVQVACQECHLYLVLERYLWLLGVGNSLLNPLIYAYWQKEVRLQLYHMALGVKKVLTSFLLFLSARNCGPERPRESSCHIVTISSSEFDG

A549 [18] = experiment: Cytotoxicity against human A549 cells assessed as reduction in cell viability at 100 uM by MTT assay; format: functional, cell-based
MDA-MB-231 = experiment: Cytotoxicity against human MDA-MB-231 cells assessed as reduction in cell viability at 100 uM by MTT assay; format: functional, cell-based
Tyrosinase = biological target: T8, Tyrosinase (Homo sapiens, UniProt P14679); experiment: Inhibition of tyrosinase (unknown origin) incubated for 20 mins
T8 sequence (P14679 whole entry): T6 sequence (whole entry)

Dipeptidyl peptidase 4 [19] = biological target: T1, Dipeptidyl peptidase 4; experiment: Inhibition of human DPP4
[20] = Oral bioavailability in rhesus monkey at 21 mg/kg; format: ADME, organism-based, Macaca mulatta; conditions: in vivo
A549 [21] = experiment: Antiproliferative activity against human A549 cells; format: functional, cell-based

T1 sequence (P27487 whole entry): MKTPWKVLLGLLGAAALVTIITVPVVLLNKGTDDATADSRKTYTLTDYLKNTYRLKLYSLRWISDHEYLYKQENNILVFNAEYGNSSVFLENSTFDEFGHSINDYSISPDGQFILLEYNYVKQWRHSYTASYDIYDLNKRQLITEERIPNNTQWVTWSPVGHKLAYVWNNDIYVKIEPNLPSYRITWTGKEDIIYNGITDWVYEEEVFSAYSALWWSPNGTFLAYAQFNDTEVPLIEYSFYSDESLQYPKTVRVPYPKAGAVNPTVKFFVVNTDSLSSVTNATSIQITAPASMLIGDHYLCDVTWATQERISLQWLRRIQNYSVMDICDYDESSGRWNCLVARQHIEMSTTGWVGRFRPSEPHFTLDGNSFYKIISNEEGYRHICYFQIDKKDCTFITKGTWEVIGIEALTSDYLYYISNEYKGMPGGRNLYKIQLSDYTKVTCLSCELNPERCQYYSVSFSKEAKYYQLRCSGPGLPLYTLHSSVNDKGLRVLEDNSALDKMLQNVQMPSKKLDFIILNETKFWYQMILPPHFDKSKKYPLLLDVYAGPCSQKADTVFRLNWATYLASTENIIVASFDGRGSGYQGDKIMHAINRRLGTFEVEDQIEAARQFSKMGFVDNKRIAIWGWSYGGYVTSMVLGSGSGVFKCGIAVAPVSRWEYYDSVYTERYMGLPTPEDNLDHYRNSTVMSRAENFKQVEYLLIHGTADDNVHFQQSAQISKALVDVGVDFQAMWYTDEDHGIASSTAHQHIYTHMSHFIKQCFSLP

Structure (SMILES): CCOC(=O)c1n[nH]c2c(C(=O)OCC)cnn2c1=O
IC50 (Dipeptidyl peptidase 4 [1]): 54 µM

Structure (SMILES): Cc1ncc([N+](=O)[O-])n1CCO [METRONIDAZOLE]
IC50 (Entamoeba histolytica): 1.81 µM

Structure (SMILES): CSC1=NNC2NN=C(C)C2=N1 (centres undefined)
IC50 [10]: 40 µM

Structure (SMILES): O=C(NCCc1ccccc1)c1cnn2c(-c3ccc(Cl)cc3)nc(NCCc3ccccc3)nc12
IC50 [11]: 2.09 µM
inhibition [12]: 82%
inhibition of growth at 100 µM [13]: 33.3%

Structure (SMILES): Cc1nnc2n(NC(=S)NC3C4CC5CC(C4)CC3C5)c(C)nnc1-2 (centres undefined)
IC50 (Entamoeba histolytica): 0.54 µM

Structure (SMILES): O=c1[nH]c(=O)n([C@H]2C[C@H](O)[C@@H](CO)O2)cc1F [FLOXURIDINE]
IC50 (A549 [18]): 5.8 µM
IC50 (MDA-MB-231): 38 µM

Structure (SMILES): NC(N)=S [THIOUREA]
IC50 [9]: 20.9 µM

Structure (SMILES): CCOC(=O)c1cnn2c(=O)c([N+](=O)[O-])n[nH]c12
IC50 (Dipeptidyl peptidase 4 [19]): 620 µM

Structure (SMILES): Cc1nnc2n(NC(=S)NC3CCCCCCC3)c(C)nnc1-2
IC50 (Entamoeba histolytica): 0.81 µM

Structure (SMILES): CCOC(=O)c1cnn2c(-c3ccc(Cl)cc3)nc(NCc3ccccc3)nc12
IC50 [11]: 1.85 µM
inhibition [12]: 82.4%
inhibition of growth at 100 µM [13]: 41.8%

Structure (SMILES): CCOC(=O)c1cnn2c(=O)c(C(=O)NC(C)(C)C)n[nH]c12
IC50 (Dipeptidyl peptidase 4 [1]): 48.1 µM

Structure (SMILES): Cc1nnc2n(NC(=S)NC3CCCCC3)c(C)nnc1-2
IC50 (Entamoeba histolytica): 0.81 µM

Structure (SMILES): N/C(=N\O)c1cnn2c(=O)c([N+](=O)[O-])n[nH]c12
IC50 (Dipeptidyl peptidase 4 [19]): 63.6 µM

Structure (SMILES): N#Cc1cnn2c(=O)c([N+](=O)[O-])n[nH]c12
IC50 (Dipeptidyl peptidase 4 [19]): 61.1 µM

Further lines, results first:

IC50 [2]: 24.5 µM
Structure (SMILES): CCSc1nc(-c2ccc(C)cc2)n2nc(C)cc2n1

EC50 [3]: 0.021 µg/mL (≈ 0.057 µM)
half-life [4]: 30 min
half-life [5]: 30 min
half-life [6]: 18 min
half-life [7]: 210 min
EC50 [8]: 0.0407 µM
Structure (SMILES): Cc1cc(-c2nncc3c(C(C)(C)C)c(OCc4ncnn4C)nn23)no1

IC50 [9]: 0.044 µM
Structure (SMILES): CCOc1ccc(S(=O)(=O)NC[C@@H](C)O)cc1-c1nnc2c(n1)c(C)nn2C

IC50 [14]: 52.2 µM
Structure (SMILES): CN(C)CCCNc1nc(N)nc2cc(-c3ccccc3)nn12

residual activity [15]: 96.3%
inhibition [16]: 3.7%
Structure (SMILES): CCOc1ccc(S(=O)(=O)NCCN)cc1-c1nnc2c(n1)c(C)nn2C

IC50 [17]: 18.4 µM
IC50 [14]: 51.2 µM
Structure (SMILES): Nc1nc(Nc2ccc(F)cc2)n2nc(-c3ccccc3)cc2n1

IC50 (Tyrosinase): 30.8 µM
Structure (SMILES): CCOc1ccc(S(=O)(=O)N[C@H](C)CO)cc1-c1nnc2c(n1)c(C)nn2C

IC50 [14]: 7.6 µM
Structure (SMILES): Cc1ccc(Nc2nc(N)nc3cc(-c4ccccc4)nn23)cc1

IC50 [9]: 0.042 µM
Structure (SMILES): CCOc1ccc(S(=O)(=O)N[C@H](CO)CC(C)C)cc1-c1nnc2c(n1)c(C)nn2C

bioavailability [20]: 50%
Structure (SMILES): COCC(COC)Nc1nc(C)nc2c(-c3ccc(Cl)cc3Cl)c(C)nn12

IC50 [9]: 0.037 µM
Structure (SMILES): CCOc1ccc(S(=O)(=O)N[C@@H](C)CO)cc1-c1nnc2c(n1)c(C)nn2C

IC50 (Tyrosinase): 27.9 µM
Structure (SMILES): CCOc1ccc(S(=O)(=O)N[C@@H](CO)CC(C)C)cc1-c1nnc2c(n1)c(C)nn2C

IC50 (A549 [21]): 53 µM
Structure (SMILES): O=c1cc2nc(-c3ccccc3)nc(SCCc3ccccc3)n2[nH]1

— ChEMBL document CHEMBL5241085, “Pyrazolotriazines: Biological activities, synthetic strategies and recent developments” (Eur J Med Chem, 2021)
